In the OPERA property sets (Mansouri et al. 2018):

Structure (SMILES)	logP
CCc1nc(-c2ccc(C(C)C(=O)O)cc2Cl)sc1C (stereo unspecified)	4.62
CC(=O)c1csc(-c2ccc(C(C)C(=O)O)cc2)n1 (stereo unspecified)	2.65
Cc1nc(-c2ccc(C(C)C(=O)O)cc2F)sc1C (stereo unspecified)	3.74
CCc1cnc(-c2ccc(C(C)C(=O)O)cc2)s1 (stereo unspecified)	3.72
Cc1cc(C(C)C(=O)O)ccc1-c1nccs1 (stereo unspecified)	3.06
Cc1cnc(-c2ccc(C(C)C(=O)O)cc2F)s1 (stereo unspecified)	3.55
Cc1csc(-c2ccc(C(C)C(=O)O)cc2)n1 (stereo unspecified)	3.03
Cc1nc(-c2ccc(C(C)C(=O)O)cc2)sc1C (stereo unspecified)	3.36
CC(C(=O)O)c1ccc(-c2nccs2)c(F)c1 (stereo unspecified)	3.14
CCc1csc(-c2ccc(C(C)C(=O)O)cc2Cl)n1 (stereo unspecified)	4.28
CC(C)c1csc(-c2ccc(C(C)C(=O)O)cc2Cl)n1 (stereo unspecified)	4.78
Cc1csc(-c2ccc(C(C)C(=O)O)cc2Cl)n1 (stereo unspecified)	3.65
CC(C(=O)O)c1ccc(-c2nc(C(F)(F)F)cs2)cc1 (stereo unspecified)	3.78
CCCCc1csc(-c2ccc(C(C)C(=O)O)cc2)n1 (stereo unspecified)	4.83
CCc1cnc(-c2ccc(C(C)C(=O)O)cc2F)s1 (stereo unspecified)	4.1
Cc1csc(-c2ccc(C(C)C(=O)O)cc2F)n1 (stereo unspecified)	3.52
CC(C(=O)O)c1ccc(-c2nccs2)c(Br)c1 (stereo unspecified)	3.35
CC(C(=O)O)c1ccc(-c2nccs2)c(Cl)c1 (stereo unspecified)	3.39
CC(C)c1csc(-c2ccc(C(C)C(=O)O)cc2)n1 (stereo unspecified)	4.29
CCCCc1csc(-c2ccc(C(C)C(=O)O)cc2Cl)n1 (stereo unspecified)	5.36
CCc1nc(-c2ccc(C(C)C(=O)O)cc2)sc1C (stereo unspecified)	3.99
CCc1cnc(-c2ccc(C(C)C(=O)O)cc2Cl)s1 (stereo unspecified)	4.39
CC(C(=O)O)c1ccc(-c2nccs2)c([N+](=O)[O-])c1 (stereo unspecified)	2.06

Structure (SMILES)	logP
CSc1cc(C(C)C(=O)O)ccc1-c1nccs1 (stereo unspecified)	3.02
CNC(=O)c1csc(-c2ccc(C(C)C(=O)O)cc2)n1 (stereo unspecified)	2.45
C=CCc1csc(-c2ccc(C(C)C(=O)O)cc2)n1 (stereo unspecified)	4.11
CC(C(=O)O)c1ccc(-c2nccs2)c(C(F)(F)F)c1 (stereo unspecified)	3.06
CCc1nc(-c2ccc(C(C)C(=O)O)cc2F)sc1C (stereo unspecified)	4.44
CCc1csc(-c2ccc(C(C)C(=O)O)cc2F)n1 (stereo unspecified)	4.16
Cc1nc(-c2ccc(C(C)C(=O)O)cc2Cl)sc1C (stereo unspecified)	3.94
CCc1csc(-c2ccc(C(C)C(=O)O)cc2)n1 (stereo unspecified)	3.75
Cc1cnc(-c2ccc(C(C)C(=O)O)cc2)s1 (stereo unspecified)	3.15
CC(C(=O)O)c1ccc(-c2nc(C(=O)N(C)C)cs2)cc1 (stereo unspecified)	2.15
CC(C(=O)O)c1ccc(-c2nc3c(s2)CCCC3)cc1 (stereo unspecified)	4.41
CC(C(=O)O)c1ccc(-c2nc(C(N)=O)cs2)cc1 (stereo unspecified)	2.17
CC(C(=O)O)c1ccc(-c2nccs2)c(N)c1 (stereo unspecified)	2.45
COc1cc(C(C)C(=O)O)ccc1-c1nccs1 (stereo unspecified)	2.47
C=Cc1csc(-c2ccc(C(C)C(=O)O)cc2)n1 (stereo unspecified)	3.62
Cc1cnc(-c2ccc(C(C)C(=O)O)cc2Cl)s1 (stereo unspecified)	3.66
CCCCc1csc(-c2ccc(C(C)C(=O)O)cc2F)n1 (stereo unspecified)	5.24
CC(C(=O)O)c1ccc(-c2nccs2)c(O)c1 (stereo unspecified)	3.18
CC(C(=O)O)c1ccc(-c2nc(CO)cs2)cc1 (stereo unspecified)	2.25
CC(C(=O)O)c1ccc(-c2nc(-c3ccccc3)cs2)cc1 (stereo unspecified)	4.95
COCc1csc(-c2ccc(C(C)C(=O)O)cc2)n1 (stereo unspecified)	2.56
CC(C)c1csc(-c2ccc(C(C)C(=O)O)cc2F)n1 (stereo unspecified)	4.62
CC(C(=O)O)c1ccc(-c2nccs2)cc1 (stereo unspecified)	2.79
